The values that follow come from patent publication US6069132A, “Phosphazole compounds” (priority 1997, dated 2000).

By IC50 is commonly meant the concentration at which inhibition is half-maximal.

≈ marks a conversion by molar mass, not a printed value.

A short description of data set [1]: Cytotoxicity on growing THP-1 cells (MTS assay). The class given is cell-based, human. The following applies: human, thp-1 cells; Table 2; drug dose required to inhibit logphase growing cells by 50%; read-out: TC50 Growing THP-1. On the procedure: Cytotoxicity Analysis. The cytotoxicity of the compounds were assayed using the CellTiter 96™ Aqueous Non-Radioactive Cell Proliferation (MTS) Assay kit obtained from Promega (Madison, Wis.) following the instructions provided by the supplier. The viable cell number was determined by trypan blue staining and cells (THP-1) were resuspended in PRMI supplemented with 10% FBS (GIBCO). Eighty microliters of cell suspension (1.7×10^4cells/well) was dispensed onto a 96-well microtiter plates. At this time 20 μL of drug (or control) was added to appropriate wells. Each concentration was assayed in quadruplicate. The plates were incubated at 37° C. in a humidified 5% CO2 atmosphere for 4 days and MTS assay […] for each concentration and the data obtained was used to calculate TC50 (the concentration of the compound necessary to inhibit the cell growth by 50%) for each compound.

Data set [2] concerns TNFα. Briefly: Inhibition of TNFα production in LPS-stimulated THP-1 cells (ELISA). It counts as cell-based, human. The settings on record: for IC50: Homo sapiens, Table 2, LPS-stimulated THP-1, 6 h post-stimulation. On the procedure:
(§1) Cell line. THP-1 cells (human monocyte) were maintained in RPMI 1640 medium containing 25 mM Hepes buffer, 2 mM L-glutamine, 50 units of penicillin per mL, 50 μg of streptomycin sulfate per mL, and 10% heat-inactivated fetal bovine serum (FBS) in a humidified incubator containing 5% CO2. The cells were split 1:4 weekly as recommended by the American Type Culture Collection (ATCC).
(§2) TNFα assay. Varying concentrations of the test compound or control compound were added to THP-1 cells plated at a density of 1×10^6cells/mL in 600 μL of 10% RPMI in a 48 well plate. After one hour the cells were stimulated with 0.5 μg of lipopolysaccharide (LPS; Sigma, lot number 43H40491) per mL. Six hours post-stimulation supernatants were collected and assayed for TNFα or IL-1β production using a commercially available cytokine detection ELISA (Enzyme Linked Immunosorbent Assay) kit according to the suppliers instructions. A suitable assay kit may be obtained from Biosource, or R and D systems. A novel xanthine analog, HWA-3138, having the structure (as shown below) was used as the control compound (30) in this study to monitor the response of the THP-l cells. Xanthine analogs are known inhibitors of TNFα but not IL-1β. In the following experiments compound HWA-3138 was used as a positive control. [drawing 58]
Time of Addition. Varying concentrations of test or control compounds were added to THP-1 cells (1×10^6 cells/mL) at different time points post-stimulation using 0.5 μg of LPS (Sigma, lot number 43H40491) per mL in 300 μL of 10% RPMI in a 48 well plate. Six hours post-stimulationsupernatants were collected and assayed for TNFα or IL-1β production using a Biosource cytokine detection ELISA (Enzyme Linked Immunosorbent Assay) kit according to the supplier's instructions.
The membrane bound TNFα was separated from the free TNFα in the culture medium at 6 hours post-LPS stimulation as follows: The corresponding cells were centrifuged at 3500 rpm (~1,000×g) for 6 min. The supernatants were removed and the cell pellets were then resuspended in 200 μL of 0.25 mM Tris-HCl (pH 7.4). The cell associated TNFα was prepared by freezing the cell suspension in dry ice/ethanol and thawing at 37° C. three times with Vortexing in-between freeze-thaw cycles. Each cycle was 4-5 min apart.
To determine the long-term effects of phosphazole compound T70241 on TNFα production after a single treatment, THP-1 cells were pre-incubated with T70241, washed and resuspended in drug free medium. The xanthine analog HWA-3138 was used as a control.
(In general: An ELISA detects its analyte on a solid surface through an enzyme-linked reagent.)

The next data set concerns IL-1β. Description: Inhibition of IL-1β production in LPS-stimulated THP-1 cells (ELISA). It counts as cell-based, human. The following applies: for IC50: Homo sapiens, Table 2, LPS-stimulated THP-1, 6 h post-stimulation, read-out: IC50 IL-1β in THP-1 cells. Here is the method: as §1
as §2, with “58] […]” for “58]”
THP-1 cells were cultured and IL-1β inhibition assays were conducted as described for TNFα in Example 46, except a commercially available IL-1β assay kit, obtained from R and D Systems, Minneapolis, Minn., was used instead of the TNFα kit.
With reference now to FIG. 8, for each concentration of T70241 tested, the membrane bound IL-1β was separated from the IL-1β found free in the culture medium at 6 hours post-LPS stimulation as described in Example 46 for TNFα, and the percent inhibition of each fraction was graphed.

The nature of data set [3]: Cytotoxicity on static Vero cells. The settings on record: african green monkey, Table 4, 50% cell death (static cells), read-out: TC50 Static Vero. The class given is cell-based. Here is the method: (§3) Cell Culture. Vero (African Green Monkey kidney cells) and MRC-5 (diploid Human Embryonic Lung fibroblasts) cells were obtained from the American Type Culture Collection (ATCC) and were grown in minimal essential medium (MEM) with Earl's salts and glutamine (GIBCO BRL, Life Technologies, Inc.) with 10% heat inactivated fetal bovine serum (GIBCO BRL) and penicillin (100 μg/mL)/streptomycin (100 μg/mL).
(§4) Cytotoxicity Analysis. The cytotoxicity of the compound was assayed using few the CellTiter 96™ Aqueous Non-Radioactive Cell Proliferation (MTS) Assay (Promega). Briefly, viable cell number was determined by trypan blue staining and cells (MRC-5 and Vero) were resuspended in minimal essential medium (MEM) supplemented with 10% FBS (GIBCO). Eighty microliters of cell suspension (1.7×10^4 cells/well) was dispensed onto a 96-well microtiter plates. At this time 20 μL of drug (or control) was added to appropriate wells. Each concentration was assayed in quadruplicate. The plates were incubated at 37° C. in a humidified 5% CO2 atmosphere for 4 days and MTS assay was performed according to the manufacturer's instructions. The average absorbence of the sample was graphed for each concentration and the data obtained was used to calculate TC50 (the concentration necessary to give one-half maximum growth) for each compound.

The test system of a further data set is HSV-2. Briefly: HSV-2 CPE assay in Vero cells. It counts as cell-based. The settings on record: Human alphaherpesvirus 2, Vero.
The next data set deals with HSV-1. Briefly: HSV-1 CPE assay in Vero cells. It counts as cell-based. The settings on record: Human alphaherpesvirus 1, Vero.
The nature of data set [4]: Cytotoxicity on static MRC-5 cells. It counts as cell-based. The following applies: human, Table 4, 50% cell death (static cells), read-out: TC50 Static MRC-5. On the procedure: as §3, §4
Data set [5] can be described thus: Cytotoxicity on growing MRC-5 cells (MTS). The class given is cell-based, human. The settings on record: human, mrc-5 cells; Table 4; 50% inhibition of logphase growing cells; read-out: TC50 Growing MRC-5. Here is the method:
as §3, §4

The nature of data set [6]: Cytotoxicity on growing Vero cells (MTS). It counts as cell-based. The following applies: african green monkey, Table 4, 50% inhibition of logphase growing cells, read-out: TC50 Growing Vero. On the procedure: as §3, §4
For the next data set, the system named is HCMV. The following applies: cited from earlier work.
Another data set deals with HCMV (Town strain). Description: HCMV plaque reduction (CPE) assay in MRC-5 cells. The class given is cell-based, human cytomegalovirus. The following applies: Human betaherpesvirus 5, MRC5; Table 4; read-out: IC50 HCMV. On the procedure: The adenine analog phosphazole (compound T70241) was assayed for antiviral activity using a HCMV plaque reduction assay, in accordance with known methods such as that described in U.S. Pat. No. 5,446,045.
as §3
CMV Cytopathic Effect (CPE) Assay. Assays were performed essentially as described by Lewis et al. (111), which report is incorporated herein by reference. MRC-5 cells (100,000 cells/well) were seeded in 24-well plates overnight. Medium was then removed and wells were rinsed once with 250 μL of 2% FCS-MEM before adding 40-50 pfu of HCMV (Town strain) to each well. After 2 hours of virus adsorption, the medium was removed and the cells were rinsed once with 2% FCS-MEM. Varying concentrations of the phosphazole compound in the culture medium (1 mL) was then added to appropriate wells and plates were incubated for 5-6 days at 37° C. in a humidified 5% CO2 atmosphere. Each concentration was tested in duplicate wells.
The extent of the plaque reduction was quantitated by removing the media and adding 200 μL of 0.1% crystal violet in 20% methanol to all wells. The crystal violet was then removed after 10 min staining at room temperature by rinsing in the sink with tap water and the plates dried overnight. The plaques were then counted using a Nikon inverted microscope.

The subject of data set [7] is TNFα. The settings on record: by inhibition of PDE activity; cited from earlier work.

As to `Nc1ncnc2pcn([C@@H]3O[C@H](CO)[C@@H](O)[C@H]3O)c12` (stereo partly drawn) [T70264, 7-Amino-1-(β-D-ribofuranosyl)-1,3-azaphospholo-[4,5-d]pyrimidine], the CC50 at 96 h in [1] came to 118 µg/mL (≈ 413 µM). The IC50 in the data set with TNFα [2] is 126 µg/mL (≈ 444 µM); with IL-1β it was more than 100 µg/mL.

On to `Nc1ncnc2pcn([C@H]3C[C@H](O)[C@@H](CO)O3)c12` (stereo partly drawn) [T70265, 7-Amino-1-(2-deoxy-β-D-eythro-pentofuranosyl)-1,3-azaphospholo[4,5-d]pyrimidine], for which the CC50 at 96 h in data set [1] turned out to be 105 µg/mL (≈ 390 µM). Moreover, the IC50 in the data set with TNFα [2] is 26.2 µg/mL (≈ 97.6 µM); in the data set with IL-1β, more than 100 µg/mL.

Regarding `Nc1nc2c(ncn2COCCO)c(=O)[nH]1` [ACV, acyclovir, reference compound], the CC50 at 96 h in data set [3], in [4], in data set [5] and in data set [6] was more than 250 µg/mL in each case. Moreover, the IC50 in the data set with HSV-2 (Table 4) was found to be 0.74 µg/mL (≈ 3.29 µM); in the data set on HSV-1 (Table 4) it was 0.1 µg/mL (≈ 0.444 µM).

On to `Nc1ncnc2c1ccn2[C@@H]1O[C@H](CO)[C@@H](O)[C@@H]1F` [arafluoro-tubercidin], for which the “activity against HCMV” value with HCMV is “selective activity against HCMV”.

Consider `Cn1c(=O)n(CCCCC(C)(C)O)c(=O)c2nc[nH]c21` [HWA-3138, reference compound], for which the CC50 at 96 h in [1] was 316 µg/mL (≈ 1130 µM). The “inhibition of TNFα production” value with TNFα [2] (10 and 100 μg/mL, THP-1, 6 h post-stimulation (FIG. 2)) is on record as “no inhibition”. Also, the IC50 in the data set on TNFα [2] is 255 µg/mL (≈ 908 µM); in the data set on IL-1β, more than 500 µg/mL. Moreover, the “inhibition of IL-1β production” value with IL-1β (10-250 μg/mL, THP-1 (FIG. 6)) is recorded as “does not inhibit IL-1β production”.

Take `Nc1ncnc2pcn(COCCO)c12` (centres unmarked) [T70268, 7-Amino-1-[(2-hydroxyethoxy)methyl]-1,3-azaphospholo-[4,5-d]pyrimidine]: the CC50 at 96 h in [3], in [4], in data set [5] and in data set [6] was more than 50 µg/mL throughout. In addition, the IC50 is more than 50 µg/mL with HSV-2 (Table 4); more than 50 µg/mL with HSV-1 (Table 4); more than 100 µg/mL in the data set with TNFα [2]; more than 100 µg/mL in the data set with IL-1β; more than 50 µg/mL in the data set on HCMV (Town strain).

`Cn1c(=O)c2c(pcn2C)n(C)c1=O` (centres unmarked) [T70271, 1,4,6-Trimethyl-1,3-azaphospholo[4,5-d]pyrimidine-5,7-dione]: the values for the IC50 in the data set with TNFα [2] and in the data set on IL-1β were 37.3 µg/mL (≈ 177 µM) and more than 250 µg/mL, respectively.

For the compound `N#Cc1cn([C@@H]2O[C@H](CO)[C@@H](O)[C@@H]2O)c2ncnc(N)c12` [ara-toyocamycin], the “activity against HCMV” value with HCMV is reported as “selective activity against HCMV”.

For `O=c1[nH]c(=O)c2[nH]cpc2[nH]1` (centres unmarked) [T70270, 1,3-Azaphospholo[4,5-d]pyrimidine-5,7(1H, 4H,6H) -dione], the IC50 was 239 µg/mL (≈ 1410 µM) in the data set with TNFα [2] and more than 250 µg/mL in the data set on IL-1β.

For the compound `CC(=O)CCCCn1c(=O)c2c(ncn2C)n(C)c1=O` [pentoxifylline], in the data set on TNFα [7], the “suppression of TNFα production” value was “suppression of TNFα production”.

For the compound `Nc1ncnc2pcn(COC(CO)CO)c12` (centres unmarked) [T70269, 7-Amino-1-[(1,3-dihydroxy-2-propoxy)methyl]-1,3-azaphospholo [4,5-d]pyrimidine], the CC50 at 96 h in data set [3] was more than 50 µg/mL; in data set [4], more than 50 µg/mL; in data set [5], more than 50 µg/mL; in data set [6] it was 41.4 µg/mL (≈ 162 µM). The IC50 in the data set with HSV-2 was 27.8 µg/mL (≈ 108 µM); in the data set with HSV-1, 2.75 µg/mL (≈ 10.7 µM); with TNFα [2], more than 100 µg/mL; with IL-1β, more than 100 µg/mL; with HCMV (Town strain) it was 26.1 µg/mL (≈ 102 µM).

As for `O=c1[nH]cnc2pc[nH]c12` (centres unmarked) [T70256, 1,3-azaphospholo[4,5-d]pyrimidin-7(1H,6H)-one], the IC50 in the data set with TNFα [2] stood at 168 µg/mL (≈ 1100 µM); with IL-1β, 170 µg/mL (≈ 1110 µM).

Take `NC(=O)c1cn([C@H]2C[C@H](O)[C@@H](CO)O2)c2ncnc(N)c12` [2'-deoxysangivamycin]: the “activity against HCMV” value in the data set on HCMV is “selective activity against HCMV”.

Take `Nc1ncnc2nc[nH]c12` [Adenine, reference compound]: the IC50 in the data set with TNFα [2] and in the data set on IL-1β was more than 250 µg/mL throughout.
